Data as given in ChEMBL document CHEMBL1909046, “DrugMatrix in vitro pharmacology data”.

Molecular target: T1, Calcitonin receptor (Homo sapiens, UniProt P30988); also: in other assays of this panel Not Active means under 50% inhibition at 10 µM
T1 sequence (P30988 whole entry): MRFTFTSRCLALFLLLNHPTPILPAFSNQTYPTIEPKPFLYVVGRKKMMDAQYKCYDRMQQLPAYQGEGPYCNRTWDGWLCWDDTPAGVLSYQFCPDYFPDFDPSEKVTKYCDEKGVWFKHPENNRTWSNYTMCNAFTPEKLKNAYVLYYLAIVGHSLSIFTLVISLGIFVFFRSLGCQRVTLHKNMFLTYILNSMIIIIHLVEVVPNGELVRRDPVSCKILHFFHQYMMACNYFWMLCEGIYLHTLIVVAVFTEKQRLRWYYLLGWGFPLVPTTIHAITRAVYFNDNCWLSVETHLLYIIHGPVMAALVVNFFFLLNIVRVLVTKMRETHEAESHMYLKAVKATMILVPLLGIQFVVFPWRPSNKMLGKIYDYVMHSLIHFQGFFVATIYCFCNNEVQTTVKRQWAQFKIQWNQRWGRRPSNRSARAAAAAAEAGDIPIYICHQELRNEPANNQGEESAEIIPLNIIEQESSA
Assay: not given
Assay type: cell membranes, Membrane
Conditions: t47d

Structure (SMILES) | IC50
CCC[C@@H]1C[C@@H](C(=O)N[C@@H]([C@H]2O[C@H](SC)[C@H](O)[C@@H](O)[C@H]2O)[C@H](C)Cl)N(C)C1 [CLINDAMYCIN] | Not Active
O=C(O)c1cc(=O)c2c(OCC(O)COc3cccc4oc(C(=O)O)cc(=O)c34)cccc2o1 [CROMOLYN] | Not Active
O=P1(N(CCCl)CCCl)NCCCO1 (stereo not given) [CYCLOPHOSPHAMIDE ANHYDROUS] | Not Active
CC(=O)O[C@]1(C(C)=O)CC[C@H]2[C@@H]3C=C(Cl)C4=CC(=O)[C@@H]5C[C@@H]5[C@]4(C)[C@H]3CC[C@@]21C [CYPROTERONE ACETATE] | Not Active
Nc1nc(N)nc(NC2CC2)n1 [CYROMAZINE] | Not Active

Molecular target: T2, Endothelin-1 receptor (Homo sapiens, UniProt P25101); also: in other assays of this panel Not Active means under 50% inhibition at 10 µM
T2 sequence (P25101 whole entry): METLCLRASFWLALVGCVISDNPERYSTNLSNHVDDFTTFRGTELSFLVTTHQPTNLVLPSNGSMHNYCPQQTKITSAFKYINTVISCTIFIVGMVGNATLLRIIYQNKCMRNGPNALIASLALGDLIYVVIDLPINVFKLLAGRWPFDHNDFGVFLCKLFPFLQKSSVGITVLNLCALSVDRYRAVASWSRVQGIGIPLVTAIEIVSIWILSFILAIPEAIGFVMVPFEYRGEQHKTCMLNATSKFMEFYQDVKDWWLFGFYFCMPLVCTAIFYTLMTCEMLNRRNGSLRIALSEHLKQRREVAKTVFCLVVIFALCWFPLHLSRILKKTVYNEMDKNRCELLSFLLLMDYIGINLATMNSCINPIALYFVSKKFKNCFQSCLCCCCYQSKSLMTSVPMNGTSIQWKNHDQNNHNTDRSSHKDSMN
Assay: not given
Assay type: cell membranes, CHO-K1, Membrane
Conditions: cho-k1

Structure (SMILES) | IC50
CCC[C@@H]1C[C@@H](C(=O)N[C@@H]([C@H]2O[C@H](SC)[C@H](O)[C@@H](O)[C@H]2O)[C@H](C)Cl)N(C)C1 [CLINDAMYCIN] | Not Active
O=C(O)c1cc(=O)c2c(OCC(O)COc3cccc4oc(C(=O)O)cc(=O)c34)cccc2o1 [CROMOLYN] | Not Active
O=P1(N(CCCl)CCCl)NCCCO1 (stereo not given) [CYCLOPHOSPHAMIDE ANHYDROUS] | Not Active
CC(=O)O[C@]1(C(C)=O)CC[C@H]2[C@@H]3C=C(Cl)C4=CC(=O)[C@@H]5C[C@@H]5[C@]4(C)[C@H]3CC[C@@]21C [CYPROTERONE ACETATE] | Not Active
Nc1nc(N)nc(NC2CC2)n1 [CYROMAZINE] | Not Active

Molecular target: T3, Angiotensin-converting enzyme (Oryctolagus cuniculus, UniProt P12822);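 also: enzymatic inhibition of angiotensin-converting enzyme measured with FAPGG as the substrate; in other assays of this panel Not Active means under 50% inhibition at 10 µM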
T3 sequence (P12822 whole entry): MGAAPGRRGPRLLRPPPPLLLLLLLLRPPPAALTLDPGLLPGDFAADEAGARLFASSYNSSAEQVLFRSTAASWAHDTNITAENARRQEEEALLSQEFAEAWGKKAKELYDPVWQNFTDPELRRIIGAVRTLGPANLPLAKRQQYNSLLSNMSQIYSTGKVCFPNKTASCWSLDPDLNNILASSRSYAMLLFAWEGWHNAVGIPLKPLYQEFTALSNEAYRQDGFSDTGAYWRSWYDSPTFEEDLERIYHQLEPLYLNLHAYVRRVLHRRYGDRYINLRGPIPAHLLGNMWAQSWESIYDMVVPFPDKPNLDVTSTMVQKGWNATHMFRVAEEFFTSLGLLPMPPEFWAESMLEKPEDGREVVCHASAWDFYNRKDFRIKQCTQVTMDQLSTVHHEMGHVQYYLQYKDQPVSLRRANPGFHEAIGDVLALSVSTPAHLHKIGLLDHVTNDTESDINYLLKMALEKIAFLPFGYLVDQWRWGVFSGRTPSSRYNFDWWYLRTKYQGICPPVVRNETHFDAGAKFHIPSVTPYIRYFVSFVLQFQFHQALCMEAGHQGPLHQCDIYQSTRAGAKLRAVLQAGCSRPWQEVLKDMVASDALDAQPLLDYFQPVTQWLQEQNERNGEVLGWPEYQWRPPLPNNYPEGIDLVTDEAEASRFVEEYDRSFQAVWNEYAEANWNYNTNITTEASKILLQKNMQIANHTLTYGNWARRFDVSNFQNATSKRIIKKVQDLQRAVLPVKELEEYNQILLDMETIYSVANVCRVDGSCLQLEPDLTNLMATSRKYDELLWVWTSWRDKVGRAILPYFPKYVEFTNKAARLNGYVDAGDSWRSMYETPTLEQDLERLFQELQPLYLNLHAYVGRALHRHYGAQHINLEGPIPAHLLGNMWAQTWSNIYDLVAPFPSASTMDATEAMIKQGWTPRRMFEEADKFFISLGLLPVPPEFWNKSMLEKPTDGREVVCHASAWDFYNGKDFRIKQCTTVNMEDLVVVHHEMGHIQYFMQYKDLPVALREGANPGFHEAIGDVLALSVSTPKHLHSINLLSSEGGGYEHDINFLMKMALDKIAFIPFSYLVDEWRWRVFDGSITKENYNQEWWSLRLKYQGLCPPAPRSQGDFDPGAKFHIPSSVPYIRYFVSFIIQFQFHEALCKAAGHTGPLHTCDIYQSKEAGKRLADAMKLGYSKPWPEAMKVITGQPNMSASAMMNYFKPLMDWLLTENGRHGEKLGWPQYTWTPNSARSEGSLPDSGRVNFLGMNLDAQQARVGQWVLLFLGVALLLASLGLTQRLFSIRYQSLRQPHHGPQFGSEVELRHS
Assay: not given
Assay type: tissue-based, Lung
Conditions: not given

Structure (SMILES) | IC50
CCC[C@@H]1C[C@@H](C(=O)N[C@@H]([C@H]2O[C@H](SC)[C@H](O)[C@@H](O)[C@H]2O)[C@H](C)Cl)N(C)C1 [CLINDAMYCIN] | Not Active
O=C(O)c1cc(=O)c2c(OCC(O)COc3cccc4oc(C(=O)O)cc(=O)c34)cccc2o1 [CROMOLYN] | Not Active
O=P1(N(CCCl)CCCl)NCCCO1 (stereo not given) [CYCLOPHOSPHAMIDE ANHYDROUS] | Not Active
CC(=O)O[C@]1(C(C)=O)CC[C@H]2[C@@H]3C=C(Cl)C4=CC(=O)[C@@H]5C[C@@H]5[C@]4(C)[C@H]3CC[C@@]21C [CYPROTERONE ACETATE] | Not Active
Nc1nc(N)nc(NC2CC2)n1 [CYROMAZINE] | Not Active

Tested on: not listed separately
Assay: DRUGMATRIX: Calcium Channel Type L, Phenylalkylamine radioligand binding (ligand: [3H] (-)-Desmethoxyverapamil (D-888))
Assay type: cell membranes, Rattus norvegicus, Wistar, Brain, Membrane
Conditions: Not Active = under 50% inhibition at 10 µM

Structure (SMILES) | IC50 | Ki
CCC[C@@H]1C[C@@H](C(=O)N[C@@H]([C@H]2O[C@H](SC)[C@H](O)[C@@H](O)[C@H]2O)[C@H](C)Cl)N(C)C1 [CLINDAMYCIN] | Not Active | Not Active
O=C(O)c1cc(=O)c2c(OCC(O)COc3cccc4oc(C(=O)O)cc(=O)c34)cccc2o1 [CROMOLYN] | Not Active | Not Active
O=P1(N(CCCl)CCCl)NCCCO1 (stereo not given) [CYCLOPHOSPHAMIDE ANHYDROUS] | Not Active | Not Active
CC(=O)O[C@]1(C(C)=O)CC[C@H]2[C@@H]3C=C(Cl)C4=CC(=O)[C@@H]5C[C@@H]5[C@]4(C)[C@H]3CC[C@@]21C [CYPROTERONE ACETATE] | Not Active | Not Active
Nc1nc(N)nc(NC2CC2)n1 [CYROMAZINE] | Not Active | Not Active

Molecular target: Aldo-keto reductase family 1 member B1 (Rattus norvegicus, UniProt P07943);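 also: inhibition of aldose reductase enzyme activity, measured with DL-glyceraldehyde as the substrate; in other assays of this panel Not Active means under 50% inhibition at 10 µM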
Assay: biochemical
Assay type: tissue-based, Lens of camera-type eye
Conditions: not given

Structure (SMILES) | IC50
CCC[C@@H]1C[C@@H](C(=O)N[C@@H]([C@H]2O[C@H](SC)[C@H](O)[C@@H](O)[C@H]2O)[C@H](C)Cl)N(C)C1 [CLINDAMYCIN] | Not Active
O=C(O)c1cc(=O)c2c(OCC(O)COc3cccc4oc(C(=O)O)cc(=O)c34)cccc2o1 [CROMOLYN] | Not Active
O=P1(N(CCCl)CCCl)NCCCO1 (stereo not given) [CYCLOPHOSPHAMIDE ANHYDROUS] | Not Active
CC(=O)O[C@]1(C(C)=O)CC[C@H]2[C@@H]3C=C(Cl)C4=CC(=O)[C@@H]5C[C@@H]5[C@]4(C)[C@H]3CC[C@@]21C [CYPROTERONE ACETATE] | Not Active
Nc1nc(N)nc(NC2CC2)n1 [CYROMAZINE] | Not Active

Molecular target: T4, D(4) dopamine receptor (Homo sapiens, UniProt P21917)
T4 sequence (P21917 whole entry): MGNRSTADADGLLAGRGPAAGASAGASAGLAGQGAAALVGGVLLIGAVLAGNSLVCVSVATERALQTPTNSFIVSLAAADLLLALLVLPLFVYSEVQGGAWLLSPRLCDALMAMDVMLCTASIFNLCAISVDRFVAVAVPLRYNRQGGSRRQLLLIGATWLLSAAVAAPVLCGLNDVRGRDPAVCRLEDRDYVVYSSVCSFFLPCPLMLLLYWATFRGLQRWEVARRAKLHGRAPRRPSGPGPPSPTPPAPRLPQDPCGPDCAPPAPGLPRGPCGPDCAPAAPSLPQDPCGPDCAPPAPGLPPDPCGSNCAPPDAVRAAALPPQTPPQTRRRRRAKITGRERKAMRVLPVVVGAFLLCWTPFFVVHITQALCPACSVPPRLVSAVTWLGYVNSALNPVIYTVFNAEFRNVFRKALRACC
Assay: DRUGMATRIX: Dopamine D4.2 radioligand binding (ligand: [3H] Spiperone)
Assay type: cell membranes, CHO-K1, Membrane
Conditions: cho-k1; Not Active = under 50% inhibition at 10 µM

Structure (SMILES) | IC50
CCC[C@@H]1C[C@@H](C(=O)N[C@@H]([C@H]2O[C@H](SC)[C@H](O)[C@@H](O)[C@H]2O)[C@H](C)Cl)N(C)C1 [CLINDAMYCIN] | Not Active
O=C(O)c1cc(=O)c2c(OCC(O)COc3cccc4oc(C(=O)O)cc(=O)c34)cccc2o1 [CROMOLYN] | Not Active
O=P1(N(CCCl)CCCl)NCCCO1 (stereo not given) [CYCLOPHOSPHAMIDE ANHYDROUS] | Not Active
CC(=O)O[C@]1(C(C)=O)CC[C@H]2[C@@H]3C=C(Cl)C4=CC(=O)[C@@H]5C[C@@H]5[C@]4(C)[C@H]3CC[C@@]21C [CYPROTERONE ACETATE] | Not Active
Nc1nc(N)nc(NC2CC2)n1 [CYROMAZINE] | Not Active

Tested on: not listed separately
Assay: DRUGMATRIX: GABAA, Muscimol, Central radioligand binding (ligand: [3H] Muscimol)
Assay type: cell membranes, Rattus norvegicus, Wistar, Brain, Membrane
Conditions: Not Active = under 50% inhibition at 10 µM

Structure (SMILES) | IC50 | Ki
CCC[C@@H]1C[C@@H](C(=O)N[C@@H]([C@H]2O[C@H](SC)[C@H](O)[C@@H](O)[C@H]2O)[C@H](C)Cl)N(C)C1 [CLINDAMYCIN] | Not Active | Not Active
O=C(O)c1cc(=O)c2c(OCC(O)COc3cccc4oc(C(=O)O)cc(=O)c34)cccc2o1 [CROMOLYN] | Not Active | Not Active
O=P1(N(CCCl)CCCl)NCCCO1 (stereo not given) [CYCLOPHOSPHAMIDE ANHYDROUS] | Not Active | Not Active
CC(=O)O[C@]1(C(C)=O)CC[C@H]2[C@@H]3C=C(Cl)C4=CC(=O)[C@@H]5C[C@@H]5[C@]4(C)[C@H]3CC[C@@]21C [CYPROTERONE ACETATE] | Not Active | Not Active
Nc1nc(N)nc(NC2CC2)n1 [CYROMAZINE] | Not Active | Not Active

Tested on: not listed separately
Assay: DRUGMATRIX: Glutamate, NMDA, Agonism radioligand binding (ligand: [3H] CGP-39653)
Assay type: cell membranes, Rattus norvegicus, Wistar, Cerebral cortex, Membrane
Conditions: Not Active = under 50% inhibition at 10 µM

Structure (SMILES) | IC50 | Ki
CCC[C@@H]1C[C@@H](C(=O)N[C@@H]([C@H]2O[C@H](SC)[C@H](O)[C@@H](O)[C@H]2O)[C@H](C)Cl)N(C)C1 [CLINDAMYCIN] | Not Active | Not Active
O=C(O)c1cc(=O)c2c(OCC(O)COc3cccc4oc(C(=O)O)cc(=O)c34)cccc2o1 [CROMOLYN] | Not Active | Not Active
O=P1(N(CCCl)CCCl)NCCCO1 (stereo not given) [CYCLOPHOSPHAMIDE ANHYDROUS] | Not Active | Not Active
CC(=O)O[C@]1(C(C)=O)CC[C@H]2[C@@H]3C=C(Cl)C4=CC(=O)[C@@H]5C[C@@H]5[C@]4(C)[C@H]3CC[C@@]21C [CYPROTERONE ACETATE] | Not Active | Not Active
Nc1nc(N)nc(NC2CC2)n1 [CYROMAZINE] | Not Active | Not Active
